Target: LSD-1 enzyme (Homo sapiens (Human), UniProt O60341)
Procedure: LSD1 Histone Demethylase Biochemical Assay
LANCE LSD1/KDM1A demethylase assay-10 μL of 1 nM LSD-1 enzyme (ENZO BML-SE544-0050) in the assay buffer (50 mM Tris, pH 7.5, 0.01% Tween-20, 25 mM NaCl, 5 mM DTT) were preincubated for 1 hour at 25° C. with 0.8 μL compound/DMSO dotted in black 384 well polystyrene plates. […] After stopping the reactions plates were incubated for 30 minutes and read on a PHERAstar FS plate reader (BMG Labtech).

Row | SMILES | IC50 [nM]
1 | COCC1(CN[C@@H]2C[C@H]2c2ccccc2)CCN(C(=O)N2CC[C@@H](O)C2)CC1 [Example 60, (3R)-1-{[4-(methoxymethyl)-4-({[(1R,2S)-2-phenylcyclopropyl]amino}methyl)piperidin-1-yl]carbonyl}pyrrolidin-3-ol] | < 100
2 | N#Cc1ccc(CC2(CN[C@@H]3C[C@H]3c3ccccc3)CCN(CC3(C(=O)O)CC3)CC2)cc1 [Example 55, 1-{[4-(4-cyanobenzyl)-4-({[(1R,2S)-2-phenylcyclopropyl]amino}methyl)piperidin-1-yl]methyl}cyclopropanecarboxylic acid] | < 100
3 | N#Cc1cccc(CC2(CN[C@@H]3C[C@H]3c3ccccc3)CCN(CC3(C(=O)O)CC3)CC2)c1 [Example 56, 1-{[4-(3-cyanobenzyl)-4-({[(1R,2S)-2-phenylcyclopropyl]amino}methyl)piperidin-1-yl]methyl}cyclopropanecarboxylic acid] | < 100
4 | COCC1(CN[C@@H]2C[C@H]2c2ccccc2)CCN(C(=O)c2ccc(N)nn2)CC1 [Example 40, 6-{[4-(methoxymethyl)-4-({[(1R,2S)-2-phenylcyclopropyl]amino}methyl)piperidin-1-yl]carbonyl}pyridazin-3-amine] | < 100
5 | N#Cc1cccc(OCC2(CN[C@@H]3C[C@H]3c3ccccc3)CCN(CC3(C(=O)O)CCC3)CC2)c1 [Example 84, 1-{[4-[(3-cyanophenoxy)methyl]-4-({[(1R,2S)-2-phenylcyclopropyl]amino}methyl)piperidin-1-yl]methyl}cyclobutanecarboxylic acid] | < 100
6 | O=C(N1CC(CNC2CC2c2ccccc2)C1)N1CCC[C@]2(CCN(C3CCC(O)CC3)C2=O)C1 (stereo partly drawn) [Example 11, (5S)-2-(cis-4-Hydroxycyclohexyl)-7-[(3-{[(trans-2-phenylcyclopropyl)amino]methyl}azetidin-1-yl)carbonyl]-2,7-diazaspiro[4.5]decan-1-one] | < 100
7 | COCC1(CN[C@@H]2C[C@H]2c2ccccc2)CCN(C(=O)c2cnn(C)c2)CC1 [Example 105, (1R,2S)—N-({4-(methoxymethyl)-1-[(1-methyl-1H-pyrazol-4-yl)carbonyl]piperidin-4-yl}methyl)-2-phenylcyclopropanamine] | < 100
8 | COCC1(C(C)N[C@@H]2C[C@H]2c2ccccc2)CCN(CC2(C(=O)O)CCC2)CC1 (stereo partly drawn) [Example 68, 1-{[4-(methoxymethyl)-4-(1-{[(1R,2S)-2-phenylcyclopropyl]amino}ethyl)piperidin-1-yl]methyl}cyclobutanecarboxylic acid] | < 100
9 | O=C(O)C1(CN2CCC(CN[C@@H]3C[C@H]3c3ccccc3)(COc3cccc(F)c3)CC2)CC1 [Example 77, 1-{[4-[(3-fluorophenoxy)methyl]-4-({[(1R,2S)-2-phenylcyclopropyl]amino}methyl)piperidin-1-yl]methyl}cyclopropanecarboxylic acid] | < 100
10 | COCC1(CN[C@@H]2C[C@H]2c2ccccc2)CCN(C(=O)[C@@H]2CCCN2C)CC1 [Example 38, (1R,2S)—N-[(4-(methoxymethyl)-1-{[(2S)-1-methylpyrrolidin-2-yl]carbonyl}piperidin-4-yl)methyl]-2-phenylcyclopropanamine] | < 100
11 | COc1ccc(NC(=O)N2CC(CN[C@@H]3C[C@H]3c3ccccc3)C2)cc1 (relative stereo) [Example 22, N-(4-Methoxyphenyl)-3-{[(trans-2-phenylcyclopropyl)amino]methyl}azetidine-1-carboxamide] | < 100
12 | COCC1(CN[C@@H]2C[C@H]2c2ccccc2)CCN(C(=O)c2ccn(C)n2)CC1 [Example 42, (1R,2S)—N-({4-(methoxymethyl)-1-[(1-methyl-1H-pyrazol-3-yl)carbonyl]piperidin-4-yl}methyl)-2-phenylcyclopropanamine] | < 100
13 | O=C(O)C1(CN2CCC(CN[C@@H]3C[C@H]3c3ccccc3)(Cc3ccc(F)cn3)CC2)CCC1 [Example 97, 1-{[4-[(5-fluoropyridin-2-yl)methyl]-4-({[(1R,2S)-2-phenylcyclopropyl]amino}methyl)piperidin-1-yl]methyl}cyclobutanecarboxylic acid] | < 100
14 | CC1(CN[C@@H]2C[C@H]2c2ccccc2)CCN(C(=O)c2cnc(N)nc2)CC1 [Example 48, 5-{[4-methyl-4-({[(1R,2S)-2-phenylcyclopropyl]amino}methyl)piperidin-1-yl]carbonyl}pyrimidin-2-amine] | < 100
15 | COCC1(CN[C@@H]2C[C@H]2c2ccccc2)CCN(CC2(C(=O)O)CCCC2)CC1 [Example 37, 1-{[4-(methoxymethyl)-4-({[(1R,2S)-2-phenylcyclopropyl]amino}methyl)piperidin-1-yl]methyl}cyclopentanecarboxylic acid] | < 100
16 | O=C(O)C1(CN2CCC(CN[C@@H]3C[C@H]3c3ccccc3)(COC3CCCCC3)CC2)CCC1 [Example 95, 1-{[4-[(cyclohexyloxy)methyl]-4-({[(1R,2S)-2-phenylcyclopropyl]amino}methyl)piperidin-1-yl]methyl}cyclobutanecarboxylic acid] | < 100
17 | COCC1(CN[C@@H]2C[C@H]2c2ccccc2)CCN(C(=O)N2CC[C@H](O)C2)CC1 [Example 61, (3S)-1-{[4-(methoxymethyl)-4-({[(1R,2S)-2-phenylcyclopropyl]amino}methyl)piperidin-1-yl]carbonyl}pyrrolidin-3-ol] | < 100
18 | O=C(Nc1cccc(F)c1)N1CC(CN[C@@H]2C[C@H]2c2ccccc2)C1 (relative stereo) [Example 20, N-(3-Fluorophenyl)-3-{[(trans-2-phenylcyclopropyl)amino]methyl}azetidine-1-carboxamide] | < 100
19 | COc1ccc(CC2(CN[C@@H]3C[C@H]3c3ccccc3)CCN(CC3(C(=O)O)CC3)CC2)cn1 [Example 69, 1-{[4-[(6-methoxypyridin-3-yl)methyl]-4-({[(1R,2S)-2-phenylcyclopropyl]amino}methyl)piperidin-1-yl]methyl}cyclopropanecarboxylic acid] | < 100
20 | CCOCC1(CN[C@@H]2C[C@H]2c2ccccc2)CCN(CC2(C(=O)O)CCC2)CC1 [Example 71, 1-{[4-(ethoxymethyl)-4-({[(1R,2S)-2-phenylcyclopropyl]amino}methyl)piperidin-1-yl]methyl}cyclobutanecarboxylic acid] | < 100
21 | COCC1(CN[C@@H]2C[C@H]2c2ccccc2)CCN(C(=O)c2ccn(CCO)n2)CC1 [Example 108, 2-(3-{[4-(methoxymethyl)-4-({[(1R,2S)-2-phenylcyclopropyl]amino}methyl)piperidin-1-yl]carbonyl}-1H-pyrazol-1-yl)ethanol] | < 100
22 | COc1ccc(CC2(CN[C@@H]3C[C@H]3c3ccccc3)CCN(CC3(C(=O)O)CCC3)CC2)cc1 [Example 99, 1-{[4-(4-methoxybenzyl)-4-({[(1R,2S)-2-phenylcyclopropyl]amino}methyl)piperidin-1-yl]methyl}cyclobutanecarboxylic acid] | < 100
23 | COc1cccc(C(=O)N2CC(CN[C@@H]3C[C@H]3c3ccccc3)C2)c1 (relative stereo) [Example 27, N-{[1-(3-Methoxybenzoyl)azetidin-3-yl]methyl}-trans-2-phenylcyclopropanamine] | < 100
24 | O=C(c1ccc(F)cc1)N1CC(CN[C@@H]2C[C@H]2c2ccccc2)C1 (relative stereo) [Example 28, N-{[1-(4-Fluorobenzoyl)azetidin-3-yl]methyl}-trans-2-phenylcyclopropanamine] | < 100

Source: patent US9670210B2, “Cyclopropylamines as LSD1 inhibitors” (Incyte Corporation, priority 2014, dated 2017)
